Laboratory results from ChEMBL document CHEMBL1122946, “Folate antagonists. 21. Synthesis and antimalarial properties of 2,4-diamino-6-(benzylamino)pyrido[3,2-d]pyrimidines” (1985).

Assays:
Mus musculus [1] = experiment: Mean survival time against trophozoite induced Plasmodium berghei in mice minus control was evaluated at a dose 640 mg/kg; 5 toxic death occurred out of 5 animals on days 2-5 after injection.; assay type: functional, organism-based; parameters: dose 640 mg/kg
Mus musculus [2] = experiment: Mean survival time against trophozoite induced Plasmodium berghei in mice minus control was evaluated at a dose 160 mg/kg.; assay type: functional
Mus musculus [3] = experiment: Mean survival time against trophozoite induced Plasmodium berghei in mice minus control was evaluated at a dose 40 mg/kg.; assay type: functional
Mus musculus [4] = experiment: Mean survival time against trophozoite induced Plasmodium berghei in mice minus control was evaluated at a dose 5 mg/kg.; assay type: functional
Mus musculus [5] = experiment: Mean survival time against trophozoite induced Plasmodium berghei in mice minus control was evaluated at a dose 640 mg/kg; 5 toxic death occurred out of 5 animals on days 2-5 after injection; assay type: functional, organism-based; parameters: dose 640 mg/kg
Mus musculus [6] = experiment: Mean survival time against trophozoite induced Plasmodium berghei in mice minus control was evaluated at a dose 80 mg/kg; 4 toxic death occurred out of 10 animals on days 2-5 after injection.; assay type: functional, organism-based; parameters: dose 80 mg/kg
Mus musculus [7] = experiment: Mean survival time against trophozoite induced Plasmodium berghei in mice minus control was evaluated at a dose 20 mg/kg;3 survived out of 15 animals at 60 days postinjection; assay type: functional, organism-based; parameters: dose 20 mg/kg
Mus musculus [8] = experiment: Mean survival time against trophozoite induced Plasmodium berghei in mice minus control was evaluated at a dose 10 mg/kg; assay type: functional
Mus musculus [9] = experiment: Mean survival time against trophozoite induced Plasmodium berghei in mice minus control was evaluated at a dose 320 mg/kg; 8 toxic death occurred out f 10 animals on days 2-5 after injection; assay type: functional, organism-based; parameters: dose 320 mg/kg
Mus musculus [10] = experiment: Mean survival time against trophozoite induced Plasmodium berghei in mice minus control was evaluated at a dose 1.25 mg/kg; assay type: functional
Mus musculus [11] = experiment: Mean survival time against trophozoite induced Plasmodium berghei in mice minus control was evaluated at a dose 160 mg/kg; 8 toxic death occurred out of 10 animals on days 2-5 after injection; assay type: functional, organism-based; parameters: dose 160 mg/kg
Mus musculus [12] = experiment: Mean survival time against trophozoite induced Plasmodium berghei in mice minus control was evaluated at a dose 2.5 mg/kg.; assay type: functional
Mus musculus [13] = experiment: Mean survival time against trophozoite induced Plasmodium berghei in mice minus control was evaluated at a dose 40 mg/kg; 11 survived out of 15 animals at 60 days postinjection; assay type: functional, organism-based; parameters: dose 40 mg/kg
Mus musculus [14] = experiment: Mean survival time against trophozoite induced Plasmodium berghei in mice minus control was evaluated at a dose 640 mg/kg; 5 toxic death occurred on days 2-5 after injection; assay type: functional, organism-based; parameters: dose 640 mg/kg
Mus musculus [15] = experiment: Mean survival time against trophozoite induced Plasmodium berghei in mice minus control was evaluated at a dose 80 mg/kg; 2 survived occurred on days 2-5 after injection; assay type: functional, organism-based; parameters: dose 80 mg/kg
Mus musculus [16] = experiment: Mean survival time against trophozoite induced Plasmodium berghei in mice minus control was evaluated at a dose 80 mg/kg; 2 survived occurred on days 2-5 after injection.; assay type: functional
Mus musculus [17] = experiment: Mean survival time against trophozoite induced Plasmodium berghei in mice minus control was evaluated at a dose 160 mg/kg; 5 survived occurred on days 2-5 after injection; assay type: functional, organism-based; parameters: dose 160 mg/kg
Mus musculus [18] = experiment: Mean survival time against trophozoite induced Plasmodium berghei in mice minus control was evaluated at a dose 10 mg/kg.; assay type: functional
Mus musculus [19] = experiment: Mean survival time against trophozoite induced Plasmodium berghei in mice minus control was evaluated at a dose 40 mg/kg; 1 survived occurred on days 2-5 after injection; assay type: functional
Mus musculus [20] = experiment: Mean survival time against trophozoite induced Plasmodium berghei in mice minus control was evaluated at a dose 20 mg/kg.; assay type: functional
Mus musculus [21] = experiment: Mean survival time against trophozoite induced Plasmodium berghei in mice minus control was evaluated at a dose 320 mg/kg; 2 toxic death and 3 survived occurred on days 2-5 after injection; assay type: functional, organism-based; parameters: dose 320 mg/kg
Mus musculus [22] = experiment: Mean survival time against trophozoite induced Plasmodium berghei in mice minus control was evaluated at a dose 640 mg/kg; 7 survived out of 10 animals at 60 days postinjection.; assay type: functional, organism-based; parameters: dose 640 mg/kg
Mus musculus [23] = experiment: Mean survival time against trophozoite induced Plasmodium berghei in mice minus control was evaluated at a dose 80 mg/kg.; assay type: functional
Mus musculus [24] = experiment: Mean survival time against trophozoite induced Plasmodium berghei in mice minus control was evaluated at a dose 160 mg/kg; 4 survived out of 10 animals at 60 days postinjection.; assay type: functional, organism-based; parameters: dose 160 mg/kg
Mus musculus [25] = experiment: Mean survival time against trophozoite induced Plasmodium berghei in mice minus control was evaluated at a dose 320 mg/kg; 2 survived out of 5 animals at 60 days postinjection.; assay type: functional, organism-based; parameters: dose 320 mg/kg
Mus musculus [26] = experiment: Mean survival time against trophozoite induced Plasmodium berghei in mice minus control was evaluated at a dose 640 mg/kg; 10 survived out of 10 animals at 60 days postinjection.; assay type: functional, organism-based; parameters: dose 640 mg/kg
Mus musculus [27] = experiment: Mean survival time against trophozoite induced Plasmodium berghei in mice minus control was evaluated at a dose 80 mg/kg; 5 survived out of 5 animals at 60 days postinjection.; assay type: functional, organism-based; parameters: dose 80 mg/kg
Mus musculus [28] = experiment: Mean survival time against trophozoite induced Plasmodium berghei in mice minus control was evaluated at a dose 160 mg/kg; 10 survived out of 10 animals at 60 days postinjection.; assay type: functional, organism-based; parameters: dose 160 mg/kg
Mus musculus [29] = experiment: Mean survival time against trophozoite induced Plasmodium berghei in mice minus control was evaluated at a dose 40 mg/kg; 6 survived out of 15 animals at 60 days postinjection.; assay type: functional, organism-based; parameters: dose 40 mg/kg
Mus musculus [30] = experiment: Mean survival time against trophozoite induced Plasmodium berghei in mice minus control was evaluated at a dose 320 mg/kg; 5 survived out of 10 animals at 60 days postinjection.; assay type: functional, organism-based; parameters: dose 320 mg/kg
Mus musculus [31] = experiment: Mean survival time against trophozoite induced Plasmodium berghei in mice minus control was evaluated at a dose 1.25 mg/kg.; assay type: functional
Mus musculus [32] = experiment: Mean survival time against trophozoite induced Plasmodium berghei in mice minus control was evaluated at a dose 20 mg/kg; 4 survived out of 10 animals at 60 days postinjection.; assay type: functional, organism-based; parameters: dose 20 mg/kg
Mus musculus [33] = experiment: Mean survival time against trophozoite induced Plasmodium berghei in mice minus control was evaluated at a dose 80 mg/kg; assay type: functional
Mus musculus [34] = experiment: Mean survival time against trophozoite induced Plasmodium berghei in mice minus control was evaluated at a dose 160 mg/kg; 5 survived out of 5 animals at 60 days postinjection.; assay type: functional, organism-based; parameters: dose 160 mg/kg
Mus musculus [35] = experiment: Mean survival time against trophozoite induced Plasmodium berghei in mice minus control was evaluated at a dose 320 mg/kg; 10 survived out of 10 animals at 60 days postinjection.; assay type: functional, organism-based; parameters: dose 320 mg/kg
Mus musculus [36] = experiment: Mean survival time against trophozoite induced Plasmodium berghei in mice minus control was evaluated at a dose 640 mg/kg; 15 toxic death occurred out of 15 animals on days 2-5 after injection; assay type: functional, organism-based; parameters: dose 640 mg/kg
Mus musculus [37] = experiment: Mean survival time against trophozoite induced Plasmodium berghei in mice minus control was evaluated at a dose 320 mg/kg; 10 toxic death occurred out of 10 animals on days 2-5 after injection; assay type: functional, organism-based; parameters: dose 320 mg/kg
Mus musculus [38] = experiment: Mean survival time against trophozoite induced Plasmodium berghei in mice minus control was evaluated at a dose 40 mg/kg; assay type: functional
Mus musculus [39] = experiment: Mean survival time against trophozoite induced Plasmodium berghei in mice minus control was evaluated at a dose 160 mg/kg; 14 toxic death occurred out of 20 animals on days 2-5 after injection; assay type: functional, organism-based; parameters: dose 160 mg/kg
Mus musculus [40] = experiment: Mean survival time against trophozoite induced Plasmodium berghei in mice minus control was evaluated at a dose 20 mg/kg; assay type: functional
Mus musculus [41] = experiment: Mean survival time against trophozoite induced Plasmodium berghei in mice minus control was evaluated at a dose 640 mg/kg.; assay type: functional
Mus musculus [42] = experiment: Mean survival time against trophozoite induced Plasmodium berghei in mice minus control was evaluated at a dose 160 mg/kg; assay type: functional
Mus musculus [43] = experiment: Mean survival time against trophozoite induced Plasmodium berghei in mice minus control was evaluated at a dose 80 mg/kg; 4 survived out of 5 animals at 60 days postinjection.; assay type: functional, organism-based; parameters: dose 80 mg/kg
Mus musculus [44] = experiment: Mean survival time against trophozoite induced Plasmodium berghei in mice minus control was evaluated at a dose 160 mg/kg; 1 survived out of 5 animals at 60 days postinjection.; assay type: functional, organism-based; parameters: dose 160 mg/kg
Mus musculus [45] = experiment: Mean survival time against trophozoite induced Plasmodium berghei in mice minus control was evaluated at a dose 320 mg/kg.; assay type: functional
Mus musculus [46] = experiment: Mean survival time against trophozoite induced Plasmodium berghei in mice minus control was evaluated at a dose 40 mg/kg; 8 survived out of 10 animals at 60 days postinjection.; assay type: functional, organism-based; parameters: dose 40 mg/kg

Nc1nc(N)c2nc(N3CCCCC3)ccc2n1
Delta MST (Mus musculus [1]): Toxic Deaths 5/5
Delta MST (Mus musculus [2]): 0.4 days
Delta MST (Mus musculus [3]): 0.3 days

CC#N.CC(C)N(Cc1ccc(Cl)cc1)c1ccc2nc(N)nc(N)c2n1
Delta MST (Mus musculus [4]): 8.5 days
Delta MST (Mus musculus [5]): Toxic Deaths 5/5
Delta MST (Mus musculus [6]): Toxic Deaths 4/10
Delta MST (Mus musculus [7]): Survivals 3/15
Delta MST (Mus musculus [8]): 11.5 days
Delta MST (Mus musculus [9]): Toxic Deaths 8/10
Delta MST (Mus musculus [10]): 3.5 days
Delta MST (Mus musculus [11]): Toxic Deaths 8/10
Delta MST (Mus musculus [12]): 6.5 days
Delta MST (Mus musculus [13]): Survivals 11/15

CC1(C)N=C(N)N=C(N)N1c1ccc(Cl)cc1.Cl [CHLORCYCLOGUANIL HYDROCHLORIDE]
Delta MST (Mus musculus [14]): Toxic Deaths 5
Delta MST (Mus musculus [15]): Survivals 2
Delta MST (Mus musculus [16]): 21.6 days
Delta MST (Mus musculus [17]): Survivals 5
Delta MST (Mus musculus [18]): 4.9 days
Delta MST (Mus musculus [19]): 13.4 days
Delta MST (Mus musculus [20]): 7.9 days
Delta MST (Mus musculus [21]): Survivals 3 Toxic Deaths 2

Nc1nc(N)c2nc(N3CCCCC3Cc3ccc(Cl)cc3)ccc2n1 (stereo unspecified)
Delta MST (Mus musculus [22]): Survivals 7/10
Delta MST (Mus musculus [23]): 9.1 days
Delta MST (Mus musculus [24]): Survivals 4/10
Delta MST (Mus musculus [25]): Survivals 2/5
Delta MST (Mus musculus [3]): 5.1 days
Delta MST (Mus musculus [20]): 2.9 days

Nc1nc(N)c2nc(N(C=O)Cc3ccc(Cl)c(Cl)c3)ccc2n1
Delta MST (Mus musculus [4]): 14.1 days
Delta MST (Mus musculus [26]): Survivals 10/10
Delta MST (Mus musculus [27]): Survivals 5/5
Delta MST (Mus musculus [28]): Survivals 10/10
Delta MST (Mus musculus [29]): Survivals 6/15
Delta MST (Mus musculus [18]): 16.3 days
Delta MST (Mus musculus [30]): Survivals 5/10
Delta MST (Mus musculus [31]): 1.9 days
Delta MST (Mus musculus [12]): 5.3 days
Delta MST (Mus musculus [32]): Survivals 4/10

Nc1nc(N)c2nc(N3CCCCC3Cc3ccccc3)ccc2n1 (stereo unspecified)
Delta MST (Mus musculus [33]): 8.2 days
Delta MST (Mus musculus [34]): Survivals 5/5
Delta MST (Mus musculus [3]): 4.9 days
Delta MST (Mus musculus [20]): 3 days
Delta MST (Mus musculus [35]): Survivals 10/10

CCCN(Cc1ccc(Cl)cc1)c1ccc2nc(N)nc(N)c2n1
Delta MST (Mus musculus [4]): 8.9 days
Delta MST (Mus musculus [36]): Toxic Deaths 15/15
Delta MST (Mus musculus [27]): Survivals 5/5
Delta MST (Mus musculus [18]): 10.3 days
Delta MST (Mus musculus [37]): Toxic Deaths 10/10
Delta MST (Mus musculus [38]): 21.3 days
Delta MST (Mus musculus [31]): 6.9 days
Delta MST (Mus musculus [39]): Toxic Deaths 14/20
Delta MST (Mus musculus [12]): 8.1 days
Delta MST (Mus musculus [40]): 18 days

CN(Cc1ccc(Cl)cc1)c1ccc2nc(N)nc(N)c2n1
Delta MST (Mus musculus [41]): 1.3 days
Delta MST (Mus musculus [42]): 1.1 days
Delta MST (Mus musculus [38]): 1.1 days

CN(Cc1ccc(C(F)(F)F)cc1)c1ccc2nc(N)nc(N)c2n1
Delta MST (Mus musculus [41]): 2.5 days
Delta MST (Mus musculus [43]): Survivals 4/5
Delta MST (Mus musculus [44]): Survivals 1/5
Delta MST (Mus musculus [45]): 2.9 days
Delta MST (Mus musculus [46]): Survivals 8/10
Delta MST (Mus musculus [20]): 8.1 days
